Legend:
[1] = target: T1, 5-hydroxytryptamine receptor 2A (Homo sapiens, UniProt P28223); experiment: Antagonist activity at human cloned 5HT2A receptor; format: functional
[2] = target: T1, 5-hydroxytryptamine receptor 2A; experiment: Displacement of [3H]ketanserin from human cloned 5HT2A receptor
[3] = target: T2, 5-hydroxytryptamine receptor 2C (Homo sapiens, UniProt P28335); experiment: Displacement of [3H]mesulergine from human cloned 5HT2C receptor
T2 sequence (P28335 whole entry): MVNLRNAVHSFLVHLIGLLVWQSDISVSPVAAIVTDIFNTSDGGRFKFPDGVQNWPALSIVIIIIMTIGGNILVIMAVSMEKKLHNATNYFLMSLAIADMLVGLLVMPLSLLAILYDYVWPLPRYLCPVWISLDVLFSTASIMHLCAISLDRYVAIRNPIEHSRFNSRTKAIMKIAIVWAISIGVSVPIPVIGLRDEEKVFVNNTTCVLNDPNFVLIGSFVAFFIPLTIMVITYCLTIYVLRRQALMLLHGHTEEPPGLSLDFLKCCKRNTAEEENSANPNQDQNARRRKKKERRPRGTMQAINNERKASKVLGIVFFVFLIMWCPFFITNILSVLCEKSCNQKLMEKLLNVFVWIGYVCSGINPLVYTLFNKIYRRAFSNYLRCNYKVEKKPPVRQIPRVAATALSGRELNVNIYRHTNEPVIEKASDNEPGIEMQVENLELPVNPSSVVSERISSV

T1 sequence (P28223 whole entry): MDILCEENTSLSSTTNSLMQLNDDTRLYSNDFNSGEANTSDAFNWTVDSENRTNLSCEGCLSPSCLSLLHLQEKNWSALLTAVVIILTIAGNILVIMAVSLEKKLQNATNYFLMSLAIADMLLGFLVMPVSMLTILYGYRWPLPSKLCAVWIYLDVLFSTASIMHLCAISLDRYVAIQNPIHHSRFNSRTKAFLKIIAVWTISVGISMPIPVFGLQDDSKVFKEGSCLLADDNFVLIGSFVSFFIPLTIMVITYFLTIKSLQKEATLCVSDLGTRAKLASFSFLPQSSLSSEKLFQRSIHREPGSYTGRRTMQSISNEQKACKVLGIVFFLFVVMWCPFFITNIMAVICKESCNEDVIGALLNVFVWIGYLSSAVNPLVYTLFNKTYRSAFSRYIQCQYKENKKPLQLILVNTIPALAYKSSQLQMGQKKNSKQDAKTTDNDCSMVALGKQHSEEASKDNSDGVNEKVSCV

Structure (SMILES)	pA2 [1]	Ki [2]	Ki [3]
O=C1CC(CN2CCC(c3noc4cc(F)ccc34)CC2)Cc2occc21 (racemic)	7.95	0.0055 µM	0.339 µM
O=C1C[C@H](CN2CCC(c3noc4cc(F)ccc34)CC2)Cc2occc21		0.00513 µM	0.372 µM
O=C1c2ccoc2CCC1CCN1CCC(c2noc3cc(F)ccc23)CC1 (stereo not drawn)	9.25		
O=C1C[C@@H](CN2CCC(c3noc4cc(F)ccc34)CC2)Cc2occc21		0.00251 µM	0.245 µM
COC(=O)c1coc2c1C(=O)CC(CN1CCC(c3noc4cc(F)ccc34)CC1)C2 (stereo not drawn)		0.00155 µM	> 10 µM
CCOC(=O)c1oc2c(c1C)C(=O)CC(CN1CCC(c3noc4cc(F)ccc34)CC1)C2 (stereo not drawn)		0.00832 µM	> 10 µM
CCOC(=O)c1oc2c(c1C)C(=O)CC(CN1CCC(C(=O)c3ccc(F)cc3)CC1)C2 (stereo not drawn)		0.0219 µM	> 10 µM
COC(=O)c1coc2c1C(=O)CC(CN1CCC(C(=O)c3ccc(F)cc3)CC1)C2 (stereo not drawn)		0.0257 µM	> 10 µM
O=C1CC(CN2CCC(C(=O)c3ccc(F)cc3)CC2)Cc2occc21 (stereo not drawn)	7.28	0.0955 µM	1.55 µM
O=C1CC(CN2CCC(c3noc4cc(F)ccc34)CC2)Cc2oc(-c3ccccc3)cc21 (stereo not drawn)		0.00692 µM	3.31 µM
O=C1CC(CN2CCN(C(=O)c3ccc(F)cc3)CC2)Cc2occc21 (stereo not drawn)		1.32 µM	> 10 µM
O=C1CC(CN2CCC(C(=O)c3ccc(F)cc3)CC2)Cc2oc(-c3ccccc3)cc21 (stereo not drawn)		0.0174 µM	> 10 µM
O=C(c1ccc(F)cc1)C1CCN(CCC2CCc3occc3C2=O)CC1 (stereo not drawn)	7.58	0.0776 µM	0.339 µM

Source: ChEMBL document CHEMBL1140101, “Synthesis, binding affinity, and molecular docking analysis of new benzofuranone derivatives as potential antipsychotics” (J Med Chem, 2008)
